Results reported in patent US20100290989A1, “COMPOSITIONS AFFECTING HYALURONIC ACID MEDIATED ACTIVITY” (LONDON HEALTH SCIENCES CENTRE RESEARCH INC., priority 2007, published 2010).
“Also recorded” adds a separate entry of the source.

Legend:
MDA-MB 231 cells = assay: Methylcellulose assay, anchorage independent growth of breast cancer cells; format: cell-based, human; conditions: MDA-MB 231 in methylcellulose; 30 ug/ml; one week; versus scrambled control peptide
Experimental: MDA-MB 231 cells were grown in Methylcellulose containing either peptide 15-1 (STMMSRSHKTRSHHV) or scrambled control peptide (HKSVSRHTSMRHSTM) (30 ug/ml). One week later, cells were counted.

MDA-MB-231 cells = assay: Scratch wound assay, breast cancer cell migration; format: cell-based, human; conditions: 30 ug/ml, 24 hrs, versus scrambled control peptide
Experimental: A confluent monolayer of MDA-MB-231 cells were scratched using a pipette tip. Cells were incubated in medium containing either peptide 15-1 (STMMSRSHKTRSHHV) or scrambled control peptide (HKSVSRHTSMRHSTM) (30 ug/ml). After 24 hrs, cells that migrated into the scratch were counted.

[1] = Isothermal calorimetry (ITC) of peptide binding to low molecular weight HA
Experimental: (§1) The binding of soluble peptide 15-1 to HA was next evaluated by isothermal calorimetry (ITC), to estimate a binding constant for the peptide (FIG. 2, the two lines represent two independent determinations in the figure). A buffered solution of 0.9 mM low molecular weight HA (10 kD average molecular weight) was injected into to a 0.6 mM peptide 15-1 solution. […] This peptide (and the scrambled control) have been further characterized in biological systems.

[2] = tested on: Prostate tumor PC3M-LN4 cells; assay: Methylcellulose assay, anchorage-independent growth of prostate tumor cells with peptide; format: cell-based; conditions: 50 micromolar peptide; PC3M-LN4 in methylcellulose; 7 days
Experimental: A methylcellulose assay was adapted to evaluate anchorage-independent growth of prostate tumor cells in vitro. This assay offers advantages over agarose since the gels can be easily solubilized, allowing for recovery and quantification/biochemical characterization of cells at the end of the experiment. Prostate tumor PC3M-LN4 cells which synthesize large amounts of HA grow in this assay to form large multicellular colonies. Cells were recovered and counted after 7 days of incubation.
Fifteen thousand PC3M-LN4 cells were seeded into methylcellulose in the presence of 50 micromolar of the HA binding peptide 15-1 or scrambled peptide. Each peptide was mixed with PC3M-LN4 cells prior to culturing these cells in methylcellulose (FIG. 4). Culturing these cells in the presence of 50 micromolar peptide 15-1 inhibits anchorage-independent growth by 80%, which is highly statistically significant (FIG. 4).

[3] = tested on: wild-type dermal fibroblast cells; assay: Scratch wound assay, wild-type fibroblast migration; format: cell-based; conditions: migration stimulated by 30-mer HA
Experimental: (§2) Scratch wound assays with Rhamm null and wildtype fibroblast cells were used to evaluate the biological properties of peptide 15-1.
(§3) Scratch wound assays are commonly used to assess the effects of drugs and drug candidates on cellular migration associated with wound closing. In a typical scratch wound assay, cells are plated to confluence in a multiwell plate. A single scratch wound is created in each well. The plate is then imaged at fixed time intervals. Cell number in the area of the scratch wound can be quantified to evaluate the characteristics of wound closing in the presence of pharmacological agents.
(§4) The lack of HA induced migration was reversed by re-expression of Rhamm (FIG. 3a).
The scratch wound assay was also used to determine the ability of various sizes of HA oligomers to promote migration of wild-type dermal fibroblast cells (FIGS. 8a and 8b).

[4] = tested on: Rhamm null (Rh−/−) fibroblasts; assay: Scratch wound assay, Rhamm null fibroblast migration; format: cell-based; conditions: with HA
Experimental: as §2, §3, §4

prostate tumor cells = assay: In vivo growth of subcutaneously injected, peptide-pretreated tumor cells; design: species or system NOD.CB17 SCID mice; conditions: cells pretreated with 50 micromolar peptide, tumors harvested after 28 days
Experimental: Studies have also been performed to determine if peptide 15-1 can inhibit tumor growth in a more complex microenvironment (FIG. 5). One hundred thousand tumor cells pretreated with 50 micromolar peptide 15-1 were injected subcutaneously into NOD.CB17 SCID mice. Twenty eight days later the mice were euthanized and the tumors harvested and analyzed.

[5] = Isothermal calorimetry (ITC) of peptide binding to high molecular weight HA; conditions: high molecular weight HA used instead of fragmented HA
Text: as §1, with “figure).” for “figure). A buffered solution of 0.9 mM low molecular weight HA (10 kD average molecular weight) was injected into to a 0.6 mM peptide 15-1 solution.”

| Sequence | anchorage independent growth of human breast cancer cells (MDA-MB 231 cells) | scratch wound induced migration of human breast cancer cells (MDA-MB-231 cells) | Kd ([1]; 0.9 mM low molecular weight HA (10 kD average) injected into 0.6 mM peptide solution, estimated, read-out: binding constant (Kd)) [nM] | inhibition of anchorage-independent growth [2] [%] | inhibition of HA stimulated migration of wildtype cells [3] | inhibition of migration of Rhamm null cells [4] | tumor growth (prostate tumor cells) | interaction with high molecular weight HA [5] | interaction with HA ([1]; low molecular weight HA (10 kD average), same conditions as peptide 15-1) |
| --- | --- | --- | --- | --- | --- | --- | --- | --- | --- |
| STMMSRSHKTRSHHV [peptide 15-1] | reduce anchorage independent growth | reduces scratch wound induced migration | 100 | 80 | sensitive to the inhibitory effects; also recorded: inhibited | resistant to the inhibitory effects | decrease in tumor growth | greatly reduced |  |
| HKSVSRHTSMRHSTM [scrambled peptide, scrambled counterpart of peptide 15-1 used as a control, reference compound] |  |  |  |  |  |  |  |  | did not interact with HA |
